Measured values reported in patent US20240382493A1, “METHODS FOR TREATING SYSTEMIC MASTOCYTOSIS AND GASTROINTESTINAL STROMAL TUMORS” (Blueprint Medicines Corporation, priority 2023, published 2024).
Like-named read-outs stand apart in the source and are kept apart here.

Tests used:
clinical = conditions: human, in vivo, po, Tmax median treatment difference
Excerpt: (§1) Subjects with chronic, stable, severe HI with features of cirrhosis due to any etiology were enrolled, and the Child-Pugh scale was used to classify the severity of liver disease. The scale employs 5 clinical measures of liver disease. Each measure is scored 1 to 3, with 3 indicating most severe derangement. Subjects' scores of 10 to 15 on this scale are classified as having severe hepatic impairment.
(§2) The control subjects were matched in a 1:1 ratio to subjects with severe hepatic impairment for age, body mass index (BMI), and sex variables.

[1] = cited from earlier work
[2] = Post-hoc analysis of pooled data of 343 patients: clearance by hepatic function; type: in vivo, human; conditions: pooled data of 343 patients (284 normal, 53 mild HI, 6 moderate HI)
Excerpt: As per the current avapritinib labeling, no dose adjustment is recommended for patients with mild or moderate HI.

[3] = Clinical study BLU-285-0107: single 100 mg oral dose, severe hepatic impairment vs matched control subjects, plasma PK; conditions: single oral 100 mg; for CL/F GeoMean / AUC(0-t) / AUC(0-inf) / Cmax / Tmax / Vd/F / half-life: total plasma avapritinib; for CLu/F GeoMean / Cumax GeoMean / AUC: unbound plasma avapritinib; for AUC(0-t) / AUC(0-inf) / AUC / Cmax / Tmax / Vd/F / half-life: human, plasma, po, 100 mg; for AUC(0-inf): AUC0-∞ GeoMean; for Cmax: Cmax GeoMean; for Tmax: Tmax median; for Vd/F: Vz/F GeoMean; for half-life: t1/2 arithmetic mean;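 on all read-outs here: severe hepatic impairment meant chronic stable cirrhosis with a Child-Pugh score of 10–15, and each such subject was paired one-to-one with a control of similar age, BMI and sex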
Excerpt: as §1, §2

[4] = patients with severe hepatic impairment; cited from earlier work

Compound `Cn1cc(-c2cc3c(N4CCN(c5ncc([C@@](C)(O)c6ccc(F)cc6)cn5)CC4)ncnn3c2)cn1` [Metabolite B] has a Tmax (clinical) of 80 h.

For `N#Cc1ccccc1-c1cc(-c2ccccn2)cn(-c2ccccc2)c1=O` [perampanel], the “AUC higher compared to normal” value ([1]; patients with mild HI) is given as 50% and the “AUC higher compared to normal” value ([1]; patients with moderate HI) is given as 2.5 fold.

For `Cn1cc(-c2cc3c(N4CCN(c5ncc([C@@](C)(N)c6ccc(F)cc6)cn5)CC4)ncnn3c2)cn1` [Avapritinib, (S)-1-(4-fluorophenyl)-1-(2-(4-(6-(1-methyl-1H-pyrazol-4-yl)pyrrolo [2,1-f][1,2,4]triazin-4-yl)piperazin-yl)pyrimidin-5-yl)ethan-1-amine], the “clearance between patients with normal liver function, mild HI and moderate HI” value [2] was “similar”, the “CL/F GeoMean” value ([3]; Matched Control) was 15.21 L/h and the “CLu/F GeoMean” value ([3]; Matched Control) was 1534 L/h. The “Cumax GeoMean” value ([3]; Matched Control) was 1.197 ng/mL, the “CL/F GeoMean” value ([3]; Severe HI) was 12.72 L/h and the “CLu/F GeoMean” value ([3]; Severe HI) was 950.6 L/h. The “Cumax GeoMean” value ([3]; Severe HI) was 1.293 ng/mL, the AUC(0-t) ([3]; AUC0-24 GeoMean, Matched Control) was 1610 ng·h/mL and the AUC(0-t) ([3]; AUC0-24 GeoMean, Severe HI) was 1370 ng·h/mL. For the same compound, the AUC(0-t) ([3]; AUC0-240 GeoMean, Matched Control) was 6030 ng·h/mL, the AUC(0-t) ([3]; AUC0-240 GeoMean, Severe HI) was 6500 ng·h/mL and the AUC(0-inf) ([3]; Matched Control) was 6570 ng·h/mL. The AUC(0-inf) ([3]; Severe HI) was 7860 ng·h/mL, the AUC ([3]; AUCu0-24 GeoMean, Matched Control) was 15.9 ng·h/mL and the AUC ([3]; AUCu0-24 GeoMean, Severe HI) was 18.3 ng·h/mL. It also gave an AUC ([3]; AUCu0-240 GeoMean, Matched Control) of 59.8 ng·h/mL, an AUC ([3]; AUCu0-240 GeoMean, Severe HI) of 87 ng·h/mL and an AUC ([3]; AUCu0-∞ GeoMean, Matched Control) of 65.2 ng·h/mL. For the same compound, the AUC ([3]; AUCu0-∞ GeoMean, Severe HI) was 105 ng·h/mL, the Cmax ([3]; Matched Control) was 121 ng/mL and the Cmax ([3]; Severe HI) was 96.6 ng/mL. For the same compound, the Tmax ([3]; Matched Control) was 2.25 h, the Tmax ([3]; Severe HI) was 1.5 h and the Vd/F ([3]; Matched Control) was 1330 L. For the same compound, the Vd/F ([3]; Severe HI) was 1710 L, the half-life ([3]; Matched Control) was 64.1 h and the half-life ([3]; Severe HI) was 96.6 h.

In the case of `Cn1cc(-c2cc3c(N4CCN(c5ncc([C@](C)(O)c6ccc(F)cc6)cn5)CC4)ncnn3c2)cn1` [Metabolite A], the Tmax (clinical) is reported as 14.1 h.

In the case of `CCOc1cc2ncc(C#N)c(Nc3ccc(OCc4ccccn4)c(Cl)c3)c2cc1NC(=O)/C=C/CN(C)C` [neratinib], the “exposure (AUC) increased” value [4] is given as 181% and the “exposure (Cmax) increased” value [4] is given as 173%.
